# Assays:
# [1] = tested on: unresectable hepatocellular carcinoma (HCC); assay: REFLECT study, efficacy per independent review; type: in vivo, human
# Experimental: The efficacy of LENVIMA was evaluated in a randomized, open-label, multicenter, international study (REFLECT; […]) conducted in patients with previously untreated unresectable hepatocellular carcinoma (HCC).
# [2] = Solubility; type: physicochemical
# [3] = Dissociation constant; type: physicochemical; settings: 25° C.
# [4] = Partition coefficient; type: physicochemical; settings: read-out: partition coefficient (log P value)
# [5] = tested on: patients with unresectable HCC; assay: Open-label phase 3 study, safety and side-effect profile (CTCAE v4.0); settings: in vivo
# Description: Randomization was stratified according to region (Asia-Pacific or Western regions), macroscopic portal vein invasion and/or extrahepatic spread (yes or no), Eastern Cooperative Oncology Group performance status (0 or 1), and body weight (<60 kg or ≥60 kg).
# Safety assessments included recording of vital signs, hematologic and biochemical laboratory testing, urinalysis, and electrocardiography.
smiles,measurement,setting,value
"COc1cc2nccc(Oc3ccc(NC(=O)NC4CC4)c(Cl)c3)c2cc1C(N)=O [LENVIMA, 4-[3-chloro-4-(N′-cyclopropylureido)phenoxy]-7-methoxyquinoline-6-carboxamide methanesulfonate]",Median PFS,"[1]; RECIST 1.1, independent review",7.3 months
same,Objective response rate,"[1]; RECIST 1.1, independent review",19%
same,PFS Number of Events,"[1]; RECIST 1.1, independent review",307
same,PFS Number of Events (%),"[1]; RECIST 1.1, independent review",(64) %
same,Number of deaths,[1]; in vivo,351
same,Number of deaths (%),[1]; in vivo,(73) %
same,Objective response rate,"[1]; mRECIST, independent review",41%
same,PFS Number of Events,"[1]; mRECIST, independent review",311
same,PFS Number of Events (%),"[1]; mRECIST, independent review",(65) %
same,solubility in ethanol (dehydrated),[2],practically insoluble
same,solubility in water,[2],slightly soluble
same,pKa,[3],5.05
same,logP,[4],3.3
same,adverse reactions leading to dose reduction or interruption,[5],about 62%
same,discontinuation due to fatigue,[5],1%
same,discontinuation due to hepatic encephalopathy,[5],1%
same,discontinuation due to hepatic failure,[5],1%
same,discontinuation due to hyperbilirubinemia,[5],1%
same,dose reduction or interruption due to decreased appetite,[5],8%
same,dose reduction or interruption due to diarrhea,[5],8%
same,dose reduction or interruption due to fatigue,[5],9%
same,dose reduction or interruption due to hypertension,[5],6%
same,dose reduction or interruption due to palmar-plantar erythrodysesthesia syndrome,[5],5%
same,dose reduction or interruption due to proteinuria,[5],7%
same,serious adverse reaction: ascites,[5],3%
same,serious adverse reaction: decreased appetite,[5],2%
same,serious adverse reaction: hepatic encephalopathy,[5],4%
same,serious adverse reaction: hepatic failure,[5],3%
same,treatment discontinuation due to adverse reactions,[5],20%
